Patent US10280174B2, “Salt of fused pyrimidine compound and crystal thereof” (TAIHO PHARMACEUTICAL CO., LTD., priority 2015, dated 2019)

How the values were obtained:
[1] = Solid stability test (severe test), 60° C.; format: physicochemical
Experimental: Solid stability was measured under the following conditions, with respect to monofumarate of Compound A, hemitartrate of Compound A and monophosphate of Compound A which were obtained in the Examples and the Reference Examples, when they were stored for 2 weeks or 4 weeks at 60° C.
Storage condition: 60° C. (Sealed)
Point of measurement: 2 weeks and 4 weeks
Storage amount: About 30 mg
Storage container: Brown glass container
Method of preparing sample solution: Sample was dissolved in 50% acetonitrile such that a concentration of the sample would be 0.4 mg/mL.
In the Table, A and B refer to percentages of the total mass of analogous substance of less than 0.1%, and 0.1% or more and less than 0.5%, respectively. Incidentally, the value marked with * was measured at 2 weeks and the others were measured at 4 weeks.

[2] = Moisture absorption/desorption test; format: physicochemical; details: for Weight change ratio, Adsorption / Weight change ratio, Desorption: 25° C.
Experimental: Moisture absorption/desorption test was carried out with respect to Compound A, monofumarate of Compound A, hemifumarate of Compound A, hemitartrate of Compound A and monophosphate of Compound A, to research the presence or absence of the characteristic of channel hydrate.
In the moisture absorption/desorption test, measurements were carried out according to the following conditions.
A dedicated quartz holder was filled with about from 5 to 10 mg of sample, and a weight of the sample at each humidity was measured and recorded in a continuous manner under the following conditions. Handling of the devices including data processing was based on the method and the process indicated in each device.
Device: VTI SA+ (manufactured by TA Instruments Inc.)
Drying temperature: 60° C.
Temperature rising speed: 1° C./min.
Equilibrium in drying: It is confirmed that no reduction of 0.01 wt % occurs in 5 minutes, in a range not exceeding 300 minutes.
Temperature for measurement: 25° C.
Equilibrium in humidification: It is confirmed that no increase of 0.01 wt % occurs in 5 minutes, in a range not exceeding 120 minutes.
Relative humidity program: Raised by 5% RH from 5% RH to 95% RH, and lowered by 5% RH from 95% RH to 5% RH.

A431 cells / TMD8 cells = assay: Proliferation inhibitory activity against cell lines expressing BTK and EGFR, and selectivity; format: cell-based, human
From the text: TMD8 cells, which are of a diffuse large B-cell lymphoma cell line expressing BTK, were suspended in RPMI1640 medium (manufactured by Life Technologies Corp.) containing 10% fetal bovine serum. A431 cells, which are of an EGFR-overexpressing, highly activated human epidermoid carcinoma cell line, were suspended in DMEM, high glucose medium (manufactured by Life Technologies Corp.) containing 10% fetal bovine serum. The cell suspensions were inoculated into each well of 384-well flat-bottomed microplates, and the cells were cultured for 1 day at 37° C. in an incubator containing 5% carbon dioxide gas. […] A DMSO solution of the test compounds was diluted with the medium used in the suspension of the each cell, and this was added to each of the wells of the cell culture plates such that the final concentration of DMSO would be 0.2%. The cells were further cultured for 3 days at 37° C. in an incubator containing 5% carbon dioxide gas. […] Proliferation inhibition ratio (%)=(C−T)/(C−C0)×100
C0: Luminescence intensity of a well measured before the addition of the test compound

[3] = tested on: mouse collagen-induced arthritis model; assay: Mice collagen-induced arthritis model; format: in vivo, DBA/1 mice; details: 0.381 mg/kg, oral, 1 time per day, 17 days; FIG. 11
Experimental: The test was carried out in accordance with the method described in Non-Patent Literature (Brand D D, et al., Nat Protoc. 2007; 2, 1269-1275, Xu D. et al., JPET, 2012 April; 341 (1):90-103). Seven-week-old male/DBA/1 mice (CHARLES RIVER LABORATORIES JAPAN, INC.) were intracutaneously injected in the dorsum with 100 μL/body of an equal amount-mixed solution (emulsion) of 4 mg/mL of bovine type 2 collagen solution (Collagen Research Center) and Complete Freund's Adjuvant (DIFCO Inc.) (initial immunization). After 21 days therefrom, the mice were intracutaneously injected in the chine with 100 μL/body of an equal amount-mixed solution (emulsion) of 4 mg/mL of bovine type 2 collagen solution (Collagen Research Center) and Complete Freund's Adjuvant (DIFCO) to provide an additional immunization. The oral administration of 1 time per day was continued for 17 days setting the administration initiation day (day 0) as the eighth day from the additional immunization. Symptoms of arthritis in day 0, day 3, day 7, day 10, day 14 and day 17 were scored macroscopically (0: No change, 1: Swelling of a finger, 2: Swelling of two fingers or more, 3: Swelling of instep, 4: Swelling of all fingers extending wrist/ankle), and a total in four limbs was obtained as a point of individual body (maximum 16 points).

[4] = tested on: recombinant human EGFR protein / BTK; assay: BTK inhibition selectivity compared with EGFR kinase inhibitory activity (in vitro); format: biochemical
Experimental: 1) Measurement of BTK Inhibitory Activity
2) Measurement of EGFR Inhibitory Activity
Therefore, a biotinated peptide (biotin-[…]) was produced by referring to the amino acid sequence of the peptide. The purified recombinant human EGFR protein used in the test was purchased from Carna Biosciences, Inc.
The reaction was terminated by adding EDTA thereto so as to obtain a final concentration of 24 mM. Subsequently, a detection liquid containing Eu-labeled anti-phosphotyrosine antibody PT66 (PerkinElmer, Inc.) and […] APC-SA (PerkinElmer, Inc.) was added thereto, and the system was left to stand for 2 hours or longer at room temperature. […] 3) BTK Inhibition Selectivity

## C=CC(=O)N1CCC[C@@H](n2nc(C(=O)Nc3nc4ccccc4o3)c3c(N)ncnc32)C1.O=C(O)/C=C/C(=O)O [monofumarate of Compound A, (R)-1-(1-acryloylpiperidin-3-yl)-4-amino-N-(benzo[d]oxazol-2-yl)-1H-pyrazolo[3,4-d]pyrimidine-3-carboxamide.monofumarate]
[1]; 60° C. (Sealed), 4 weeks
  total mass of analogous substance: A (less than 0.1%)
[1]; 60° C., compared to hemitartrate or monophosphate
  solid stability (in words): excellent solid stabilities
[2]; relative humidity 5%
  Weight change ratio, Adsorption: 0.01%
  Weight change ratio, Desorption: 0.05%
[2]; relative humidity 20%
  Weight change ratio, Adsorption: 0.14%
  Weight change ratio, Desorption: 0.17%
[2]; relative humidity 40%
  Weight change ratio, Adsorption: 0.30%
  Weight change ratio, Desorption: 0.33%
[2]; relative humidity 60%
  Weight change ratio, Adsorption: 0.37%
  Weight change ratio, Desorption: 0.41%
[2]; relative humidity 80%
  Weight change ratio, Adsorption: 0.45%
  Weight change ratio, Desorption: 0.49%
[2]; relative humidity 95%
  Weight change ratio, Adsorption: 0.60%
  Weight change ratio, Desorption: 0.60%
[2]; relative humidity of 95%
  mass change (increase): less than 1%
A431 cells / TMD8 cells; A431/TMD8
  BTK inhibition selectivity in the cell proliferation inhibition ratio relative to Comparative compound 1: about 65 times
A431 cells / TMD8 cells; GI50 based, 3 days culture, CELLTITER GLO
  A431 cell proliferation inhibition ratio/TMD8 cell proliferation inhibition ratio: 7643
[3]
  arthritis score: lowered the arthritis score effectively
[4]; in vitro kinase
  BTK inhibition selectivity against EGFR kinase relative to Comparative compound 1: about 13 times
[4]; selectivity ratio
  EGFR inhibitory activity IC50 value (nM)/BTK inhibitory activity IC50 value (nM): 16.90
